Source: a melting point compilation (Tetko et al.; mined from patent text by program, amines drawn as free bases though some values may be those of a salt)

Row | Compound | melting point
1 | O=c1c(C(O)c2ccc(Cl)cc2)c(Cl)nc2n1CCS2 (configuration not stated) | 175 to 177 °C
2 | CSc1ccc(NC#N)c(-c2ccccc2)c1 | 85 °C
3 | Cn1cc(CO)c(=O)c2ccc(Br)cc21 | > 300 °C
4 | O=C1NC(=O)C(c2ccccc2Cl)C1SC1=NCCS1 (configuration not stated) | 195 to 200 °C
5 | COc1ccc2c(c1)c(CC(N)=O)c(C)n2Cc1ccc(OCc2ccccc2)cc1 | 155 to 157 °C
6 | O[C@@H](COCc1ccccc1)[C@H](OCc1ccccc1)[C@@H](OCc1ccccc1)[C@@H](O)COCc1ccccc1 | 52.5 to 53 °C
7 | N#CC(=C(C#N)c1ccc(F)cc1)c1ccc(F)cc1 | 194 to 195 °C
8 | Cc1cncn1Cc1ccc2ccc3c(c2c1)C(C)(C)C(=O)O3 | 88 to 91 °C
9 | COC(=O)c1oc2c(sc3ccccc32)c1OC | 145 to 146 °C
10 | Cc1ccc(CSC[C@H](NC(=O)C(CS)Cc2ccc(-c3ccccc3)cc2)C(=O)O)cc1 (some centres not stated) | 131 to 135 °C
11 | O=[N+]([O-])c1cc(F)c(O)c(F)c1 | 98.4 to 101 °C
12 | N#Cc1cc(N=Nc2cccc(Cl)c2)ccc1N | 255 °C
13 | CCOc1cc(OCC)cc(-c2cncn2-c2ccc(S(C)(=O)=O)cc2)c1 | 100 to 101 °C
14 | CC(C)c1cccc(-c2ccc(F)cc2)c1/C=C/CO | 71 to 72 °C
15 | CN(C)C(=O)NCC(C)(C)c1ccc2nc(-c3ccncc3)[nH]c2c1 | 136 to 138 °C
16 | N#Cc1nn(-c2c(Cl)cc(C(F)(F)F)cc2Cl)c(N2CCCC2)c1S(=O)(=O)C(F)(F)F | 187 to 189 °C
17 | O=C(CCl)OCCCCOC(=O)CCl | 74 to 76.5 °C
18 | CC(C)(C)OC(=O)Nc1cc(OCC2COC(C)(C)O2)c(C#Cc2ccccc2)cc1[N+](=O)[O-] (racemic) | 32 °C
19 | CC(=O)OCC1CCCn2c(cc3ccccc32)C1 (configuration not stated) | 65 °C
20 | CNC(=S)NC1=NN(c2ccc(Cl)cc2)CC1 | 237 °C
21 | CCOC(=O)CCc1cc(O)nn1C | 132 to 135 °C
22 | O=C(CCC(=O)Sc1ccc(O)cc1)Sc1ccc(O)cc1 | 226 to 229 °C
23 | Cc1nc(C(N)=O)n(-c2ccc(Cl)c(Cl)c2)c1Cl | 144 to 145 °C
24 | COc1ccc(C(O)CNC(C)CCc2ccccc2)cc1C(N)=O (configuration not stated) | 110 to 148 °C

Row | Compound | melting point
25 | CC(=O)Nc1ccc(CCN(C)C)c2cn[nH]c12 | 223 °C
26 | CCC(O)c1ccc(Cl)c2nc3n(c12)CCCN3c1c(Br)cc(OC)cc1Br (configuration not stated) | 138 to 140 °C
27 | O=C(C(=O)N1CCCCC1)C(Cl)Cl | < 50 °C
28 | COC(=O)CCCc1cc2nc(Cl)ccc2n1S(=O)(=O)c1ccc(N2CCOCC2)cc1 | 110 °C
29 | CC(=O)Nc1ccc(-c2cc(-c3c(-c4cccc(C)n4)nc4ccccn34)ccn2)cc1 | 257 °C
30 | CC(C)(C)OC(=O)NCc1cc(-c2cccnc2)n[nH]1 | 185 to 187 °C
31 | CSc1ncccc1C1C(C(=O)OC(C)C)=C(C)NC(=S)N1C(=O)OC(C)C (configuration not stated) | 119 to 121 °C
32 | c1cn(-c2nc(N3CCOCC3)nc(-n3ccnc3)n2)cn1 | 268 to 270 °C
33 | O=C1NCCc2ccc(OCCCCN3CCN(c4cccc5ccccc45)CC3)nc2N1 | 188 to 190 °C
34 | CCCOC(=O)c1cc(NC(=O)c2ccccc2C)ccc1Cl | 103 to 105 °C
35 | C=C1c2ccccc2CC(=NO)Cc2ccccc21 | 119 to 123 °C
36 | O=C1COC(CCc2ccccc2)CN1 (configuration not stated) | 100 to 102 °C
37 | CC(C)c1nn(-c2ccc(C(F)(F)F)cn2)cc1COc1cc(C=O)n(C)n1 | 112 to 113 °C
38 | COC(=O)c1ccc(CC(C=O)c2cc(C(=O)OC)ccc2[N+](=O)[O-])c(OC)c1 (configuration not stated) | 117 to 120 °C
39 | COc1ccc2c3c(ccc2c1)CC(=O)C3 | 138 to 140 °C
40 | O=C1c2cccc(NC3CCCC3)c2C(=O)c2cccc(NC3CCCC3)c21 | 198 to 201 °C
41 | CC(=O)OCCN1C(=O)C(NC(=O)Nc2cccc(-c3nnn[nH]3)c2)N=C(C2CCCCC2)c2cccc(C)c21 (configuration not stated) | 165 to 168 °C
42 | CCCNc1nc(N)c2ncn(C3CCCCC3)c2n1 | 155 to 156 °C
43 | CC1=C(/C=C/S(=O)(=O)NC(C)C)C(c2cc([N+](=O)[O-])ccc2Cl)C(C(=O)OC(C)C)=C(C)N1 (configuration not stated) | 199 to 201 °C
44 | Cc1ccc2c(-c3ccccc3)onc2c1 | 77.8 °C
45 | COC(=O)NN=C1CCc2ccccc21 | 155 to 156 °C
46 | CCOC(=O)CC(=O)N(C)c1ccc(Cl)cc1[N+](=O)[O-] | 45 to 47 °C
47 | Cc1cccc(-c2nc3cccnn3c2-c2ccnc(NC(=O)c3ccc(Cl)cc3)c2)c1 | 211 to 212 °C
48 | NC(=O)CCCCc1c[nH]c2ccccc12 | 134 to 139 °C

Row | Compound | melting point
49 | O=C(Nc1cccc(C(F)(F)F)c1)c1cccc2cc(OS(=O)(=O)C(F)(F)F)ccc12 | 177 to 178 °C
50 | CCCCCCCCCC(=O)C1C(=O)CC(C)OC1=O (configuration not stated) | 62 to 63 °C
51 | CCCCC1(O)c2cc(NC(=O)CC(C)(C)C)c(C)c(C)c2OC1(C)C (configuration not stated) | 161 to 162 °C
52 | CCCOc1cc(CCC(=O)O)ccc1OCCCc1cn(-c2ccc(C(F)(F)F)cn2)nc1OCC | 106 to 107 °C
53 | Cc1oc(-c2ccccc2)nc1COc1ccccc1C=CC=Cc1nnn[nH]1 | 192 to 193 °C
54 | CC(=O)SCCC(=O)N1c2ccccc2CCC1C(=O)O (configuration not stated) | 89 to 91 °C
55 | Clc1ccc(C(=Cn2cnnn2)OCc2ccccc2)c(Cl)c1 | 92 °C
56 | CC(=O)Nc1ccc(OC(=O)C(CSSCC(NC(C)=O)C(=O)O)NC(C)=O)cc1 (configuration not stated) | 95 to 99 °C
57 | CC1(C)COc2ccc(S(=O)(=O)n3c(Cc4ccccc4C(=O)O)cc4cc(Cl)ccc43)cc21 | 190 °C
58 | CC(=Cc1cc(-n2[nH]c3c(c2=O)CCCC3)ccc1Cl)C(=O)O | 278 °C
59 | CC(=O)OCc1nc(-c2ccc3c(c2)OCO3)c2cc3c(cc2n1)OCO3 | 144 to 147 °C
60 | CCOC(=O)c1c(Cc2ccccc2)nc2c(C(F)(F)F)cccc2c1O | 99 °C
61 | CCc1c(-c2ccc(OCc3ccccc3)cc2)c2cc(C(C)=O)c3ccc(OCc4ccccc4)c1n32 | 147 to 149 °C
62 | CCOC(=O)Cn1c(=O)[nH]c(=O)c2cc(Cl)c(Cl)cc21 | > 280 °C
63 | CC(C)(C)c1cc(CCc2ccc(NC(=O)NC3CCN(Cc4ccccc4)CC3)cc2)cc(C(C)(C)C)c1O | 195 to 197 °C
64 | CCCN(CCC)C1COc2cccc(C(=O)c3ccc(F)cc3)c2C1 (configuration not stated) | 60 to 62 °C
65 | O=C1CCC2(CC1)CC(=O)c1ccccc1C2 | 158 to 160 °C
66 | COc1ccc(C2=C(c3c4n(c5ccccc35)CCC(CN)C4)C(=O)NC2=O)cc1 (configuration not stated) | 195 to 196 °C
67 | COc1ccc(C(=NOC(C)=O)c2cccc(F)c2F)c(O)c1Cl | 136 to 139 °C
68 | CC(C)(C)c1ccccc1-n1c(=O)[nH]c2c(C(N)=O)nc(-c3cccc(O)c3)nc21 | 294 to 297 °C
69 | COC(=O)c1ccn2cc(Cc3cccc(F)c3C)c(-c3ccccc3)c2c1 | 55 °C
70 | O=C(O)CCC1CCN(CC(=O)OC2CCCCC2)CC1 | 85 to 88 °C
71 | O=S1(=O)N=C(NCc2ccccc2)Nc2cc(Cl)sc21 | 223 to 226 °C
72 | CC1(C)CC(NC(=O)NC23CC4CC(CC(C4)C2)C3)CC(C)(C)C1=O | 234 to 238 °C
